Results from ChEMBL document CHEMBL4665629, “An optimised series of substituted N-phenylpyrrolamides as DNA gyrase B inhibitors” (Eur J Med Chem, 2019).
Values after ≈ are worked out from the molar mass of the structure shown.

How the values were obtained:
Enterococcus faecalis [1] = assay: Antibacterial activity against Enterococcus faecalis ATCC 29212 assessed as minimum inhibitory concentration required for >=90% inhibition of bacterial growth by CLSI protocol based broth microdilution assay; assay type: functional
Enterococcus faecium [2] = assay: Antibacterial activity against Enterococcus faecium ATCC 35667 assessed as bacterial growth inhibition at 50 uM incubated for 24 hrs by CLSI protocol based broth microdilution assay relative to control; assay type: functional
Escherichia coli [3] = assay: Antibacterial activity against Escherichia coli ATCC 25922 assessed as bacterial growth inhibition at 50 uM incubated for 24 hrs by CLSI protocol based broth microdilution assay relative to control; assay type: functional
Klebsiella pneumoniae [4] = assay: Antibacterial activity against Klebsiella pneumoniae ATCC 700603 assessed as bacterial growth inhibition at 50 uM incubated for 24 hrs by CLSI protocol based broth microdilution assay relative to control; assay type: functional
Acinetobacter baumannii [5] = assay: Antibacterial activity against Acinetobacter baumannii ATCC 19606 assessed as bacterial growth inhibition at 50 uM incubated for 24 hrs by CLSI protocol based broth microdilution assay relative to control; assay type: functional; settings: ATCC 19606 = CIP 70.34 = JCM 6841
[6] = Cytotoxicity against HUVEC assessed as reduction in cell proliferation at 50 uM after 72 hrs by MTS assay relative to control; assay type: cell-based; settings: human, HUVEC cells, read-out: Activity
[7] = target: DNA gyrase (Staphylococcus aureus) (UniProt P0A0K8+P20831); assay: Inhibition of Staphylococcus aureus DNA gyrase assessed as residual activity at 1 uM using biotinylated oligonucleotide as substrate incubated for 30 mins in presence of ATP by fluorescence-based microplate reader assay relative to control; assay type: protein-complex assay
[8] = Inhibition of Escherichia coli DNA topoisomerase 4 assessed as residual activity at 1 uM using biotinylated oligonucleotide as substrate incubated for 30 mins in presence of ATP by fluorescence-based microplate reader assay relative to control
Escherichia coli [9] = assay: Antibacterial activity against outer membrane impaired Escherichia coli JD17464 harboring lpxC mutant assessed as bacterial growth inhibition at 50 uM incubated for 24 hrs by CLSI protocol based broth microdilution assay relative to control; assay type: functional
[10] = Cytotoxicity against human HepG2 cells assessed as reduction in cell proliferation at 50 uM after 72 hrs by MTS assay relative to control; assay type: cell-based; settings: read-out: Activity
Klebsiella aerogenes [11] = assay: Antibacterial activity against Enterobacter aerogenes ATCC 13408 assessed as bacterial growth inhibition at 50 uM incubated for 24 hrs by CLSI protocol based broth microdilution assay relative to control; assay type: functional
Pseudomonas aeruginosa = assay: Antibacterial activity against Pseudomonas aeruginosa ATCC 27853 assessed as bacterial growth inhibition at 50 uM incubated for 24 hrs by CLSI protocol based broth microdilution assay relative to control; assay type: functional
Staphylococcus aureus [12] = assay: Antibacterial activity against Staphylococcus aureus ATCC 29213 assessed as bacterial growth inhibition at 50 uM incubated for 24 hrs by CLSI protocol based broth microdilution assay relative to control; assay type: functional
DNA gyrase [13] = target: DNA gyrase (Escherichia coli, UniProt P0AES4+P0AES6); assay: Inhibition of Escherichia coli DNA gyrase using biotinylated oligonucleotide as substrate incubated for 30 mins in presence of ATP by fluorescence-based microplate reader assay; assay type: protein-complex assay
Enterococcus faecalis [14] = assay: Antibacterial activity against Enterococcus faecalis ATCC 29212 assessed as bacterial growth inhibition at 50 uM incubated for 24 hrs by CLSI protocol based broth microdilution assay relative to control; assay type: functional
Escherichia coli [15] = assay: Antibacterial activity against efflux pump d effect ive Escherichia coli JW5503 harbouring tolC mutant assessed as bacterial growth inhibition at 50 uM incubated for 24 hrs by CLSI protocol based broth microdilution assay relative to control; assay type: functional
[16] = target: Topoisomerase IV (Staphylococcus aureus) (UniProt P0C1U9+P0C1S7); assay: Inhibition of Staphylococcus aureus DNA topoisomerase 4 assessed as residual activity at 1 uM using biotinylated oligonucleotide as substrate incubated for 30 mins in presence of ATP by fluorescence-based microplate reader assay relative to control; assay type: protein-complex assay
Enterococcus faecium [17] = assay: Antibacterial activity against Enterococcus faecium ATCC 35667 assessed as minimum inhibitory concentration required for >=90% inhibition of bacterial growth by CLSI protocol based broth microdilution assay; assay type: functional
Escherichia coli [18] = assay: Antibacterial activity against Escherichia coli MG1655 harboring […]/D87N mutant assessed as minimum inhibitory concentration required for >=90% inhibition of bacterial growth in presence of 50 ug/ml phenylalanine-arginine beta-naphthylamide; assay type: functional
Escherichia coli [19] = assay: Antibacterial activity against Escherichia coli MG1655 harboring […]/D87N and ParC S80I mutants assessed as minimum inhibitory concentration required for >=90% inhibition of bacterial growth in presence of 50 ug/ml phenylalanine-arginine beta-naphthylamide; assay type: functional
Acinetobacter baumannii [20] = assay: microbe, parasite or virus in culture; settings: ATCC 19606 = CIP 70.34 = JCM 6841
Klebsiella aerogenes [21] = assay: microbe, parasite or virus in culture; settings: ATCC 13408
Escherichia coli [22] = assay: Antibacterial activity against Escherichia coli MG1655 harboring […] mutant assessed as minimum inhibitory concentration required for >=90% inhibition of bacterial growth in presence of 50 ug/ml phenylalanine-arginine beta-naphthylamide; assay type: functional
Escherichia coli [23] = assay: Antibacterial activity against Escherichia coli MG1655 harboring […]/D87N and ParC S80I/E84G mutants assessed as minimum inhibitory concentration required for >=90% inhibition of bacterial growth in presence of 50 ug/ml phenylalanine-arginine beta-naphthylamide; assay type: functional
Escherichia coli [24] = assay: Antibacterial activity against Escherichia coli MG1655 harboring GyrB R136C mutant assessed as minimum inhibitory concentration required for >=90% inhibition of bacterial growth in presence of 50 ug/ml phenylalanine-arginine beta-naphthylamide; assay type: functional
Klebsiella pneumoniae [25] = assay: microbe, parasite or virus in culture; settings: 700603
[26] = target: DNA gyrase (Escherichia coli) (UniProt P0AES6+P0AES4); assay: Inhibition of Escherichia coli DNA gyrase assessed as residual activity at 1 uM using biotinylated oligonucleotide as substrate incubated for 30 mins in presence of ATP by fluorescence-based microplate reader assay relative to control; assay type: protein-complex assay
Escherichia coli [27] = assay: Antibacterial activity against efflux pump d effect ive Escherichia coli JW5503 harbouring tolC mutant assessed as minimum inhibitory concentration required for >=90% inhibition of bacterial growth by CLSI protocol based broth microdilution assay; assay type: functional
Staphylococcus aureus [28] = assay: Antibacterial activity against Staphylococcus aureus ATCC 29213 assessed as minimum inhibitory concentration required for >=90% inhibition of bacterial growth by CLSI protocol based broth microdilution assay; assay type: functional
Topoisomerase IV = Topoisomerase IV (Staphylococcus aureus, UniProt P0C1S7+P0C1U9); assay: Inhibition of Staphylococcus aureus DNA topoisomerase 4 using biotinylated oligonucleotide as substrate incubated for 30 mins in presence of ATP by fluorescence-based microplate reader assay; assay type: protein-complex assay
[29] = Inhibition of Escherichia coli DNA topoisomerase 4 using biotinylated oligonucleotide as substrate incubated for 30 mins in presence of ATP by fluorescence-based microplate reader assay
DNA gyrase [30] = target: DNA gyrase (Staphylococcus aureus, UniProt P0A0K8+P20831); assay: Inhibition of Staphylococcus aureus DNA gyrase using biotinylated oligonucleotide as substrate incubated for 30 mins in presence of ATP by fluorescence-based microplate reader assay; assay type: protein-complex assay

Compound | MIC (Enterococcus faecalis [1]) [µM] | inhibition at 50 µM (Enterococcus faecium [2]) [%] | inhibition at 50 µM (Escherichia coli [3]) [%] | inhibition at 50 µM (Klebsiella pneumoniae [4]) [%] | inhibition at 50 µM (Acinetobacter baumannii [5]) [%] | inhibition at 72 h, 50 µM [6] [%] | Activity [7] [%] | Activity [8] [%] | inhibition at 50 µM (Escherichia coli [9]) [%] | inhibition at 72 h, 50 µM [10] [%] | inhibition at 50 µM (Klebsiella aerogenes [11]) [%] | inhibition at 50 µM (Pseudomonas aeruginosa) [%] | inhibition at 50 µM (Staphylococcus aureus [12]) [%] | IC50 (DNA gyrase [13]) [nM] | inhibition at 50 µM (Enterococcus faecalis [14]) [%] | inhibition at 50 µM (Escherichia coli [15]) [%] | MIC (Enterococcus faecium [17]) [µM] | further results
Cc1[nH]c(C(=O)Nc2ccc(C(=O)N[C@H](C)c3n[nH]c(=S)o3)cc2OC(C)C)c(Cl)c1Cl | 6.25 (≈ 3.11 µg/mL) | 79 | 21 | 5 | 6 | 85 | 59 | 92 | 1 | 80 | 10 | 1 | 7 | 190 | 101 | 40 | > 125 | Activity [16]: 90%
O=C(O)c1cn(C2CC2)c2cc(N3CCNCC3)c(F)cc2c1=O [CIPROFLOXACIN] | – | – | – | – | – | – | – | – | – | – | – | – | – | – | – | – | – | MIC (Escherichia coli [18]): 0.19 µM; MIC (Escherichia coli [19]): 8 µM; MIC (Acinetobacter baumannii [20]): 3.62 µM (≈ 1.2 µg/mL); MIC (Klebsiella aerogenes [21]): 0.113 µM (≈ 0.0374 µg/mL); MIC (Escherichia coli [22]): 0.01 µM; MIC (Escherichia coli [23]): > 32 µM; MIC (Escherichia coli [24]): 0.01 µM; MIC (Klebsiella pneumoniae [25]): 0.05 µM (≈ 0.0166 µg/mL)
COC(=O)[C@H](C)NC(=O)c1ccc(NC(=O)c2[nH]c(C)c(Cl)c2Cl)c(OC2CCN(C(=O)OC(C)(C)C)CC2)c1 | – | 73 | 18 | 3 | 23 | – | – | – | 43 | – | 14 | 27 | 35 | – | – | 61 | > 25 | Activity [26]: 83%
Cc1[nH]c(C(=O)Nc2ccc(C(=O)N[C@H](C)C(=O)NN)cc2OC(C)C)c(Cl)c1Cl | 12.5 (≈ 5.7 µg/mL) | 49 | 21 | 14 | 25 | – | – | – | 31 | – | 16 | -2 | 46 | – | 85 | 38 | – | Activity [26]: 89%
Cc1[nH]c(C(=O)Nc2ccc(C(=O)NCC#N)cc2)c(Cl)c1Cl | 25 (≈ 8.78 µg/mL) | -17 | 0 | 4 | 0 | – | – | – | -8 | – | 1 | 30 | 4 | 410 | 92 | 102 | – | MIC (Escherichia coli [27]): 12.5 µM (≈ 4.39 µg/mL)
Cc1[nH]c(C(=O)Nc2ccc(-n3nn[nH]c3=O)cc2)c(Cl)c1Cl | 12.5 (≈ 4.41 µg/mL) | 53 | 3 | -2 | 1 | – | 47 | 94 | -1 | – | -2 | -3 | 99 | 77 | 99 | 100 | – | MIC (Escherichia coli [27]): 3.13 µM (≈ 1.11 µg/mL); MIC (Staphylococcus aureus [28]): 50 µM (≈ 17.7 µg/mL); Activity [16]: 85%
Cc1[nH]c(C(=O)Nc2ccc(C(=O)N[C@@H](C)C(=O)O)cc2OC2CCN(C(=O)OC(C)(C)C)CC2)c(Cl)c1Cl | – | 67 | 2 | -19 | 0 | – | 26 | 88 | 19 | – | -5 | 19 | -23 | 80 | – | 1 | > 25 | IC50 (Topoisomerase IV): 830 nM
Cc1[nH]c(C(=O)Nc2ccc(C(=O)NCC(=O)O)cc2O[C@H]2CCNC2)c(Cl)c1Cl | – | 14 | 11 | -3 | -1 | 130 | – | – | 18 | 46 | -11 | -28 | -6 | 31 | – | -1 | – | IC50 [29]: 16 µM; IC50 (Topoisomerase IV): 4300 nM; IC50 (DNA gyrase [30]): 290 nM
CCOC(=O)c1cn(CC)c2cc(NC(=O)c3[nH]c(C)c(Cl)c3Cl)ccc2c1=O | – | 37 | 12 | 9 | 3 | 88 | – | – | -2 | 90 | 5 | -3 | -3 | 53 | -7 | 11 | – | –
